Reference: patent publication US8658604B2, “Template-fixed beta-hairpin peptidomimetics with protease inhibitory activity” (Polyphor Ltd, priority 2005, dated 2014)
Where two headings read alike, the source gives them in different places. Where a SMILES comes first, the peptide text is derived from it.

What was measured:
[1] = target: Urokinase from human urine (Homo sapiens, UniProt P00749); assay: Enzymatic assay, urokinase
[2] = target: Chymotrypsin, from human pancreas (Homo sapiens, UniProt P17538); assay: Enzymatic assay, chymotrypsin; settings: at 100 μM
Chain of Chymotrypsin, from human pancreas (P17538 19-263): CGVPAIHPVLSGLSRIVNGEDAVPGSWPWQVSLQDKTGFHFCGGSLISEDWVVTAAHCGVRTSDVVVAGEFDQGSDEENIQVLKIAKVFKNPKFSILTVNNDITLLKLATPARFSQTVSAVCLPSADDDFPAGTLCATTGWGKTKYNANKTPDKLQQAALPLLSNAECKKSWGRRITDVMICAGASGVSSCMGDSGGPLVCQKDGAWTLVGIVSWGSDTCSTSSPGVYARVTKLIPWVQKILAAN

Chymase, from human skin = target: T1, Chymase, from human skin (Homo sapiens, UniProt P23946); assay: Enzymatic assay, chymase
T1 sequence (P23946 22-247): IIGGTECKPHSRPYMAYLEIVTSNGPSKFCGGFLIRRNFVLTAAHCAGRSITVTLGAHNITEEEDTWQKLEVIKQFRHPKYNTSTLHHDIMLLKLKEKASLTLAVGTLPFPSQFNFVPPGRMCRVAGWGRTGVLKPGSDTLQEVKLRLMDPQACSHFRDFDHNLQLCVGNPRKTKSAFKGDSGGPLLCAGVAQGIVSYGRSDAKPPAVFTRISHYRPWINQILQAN

HELA cells (Acc57) = assay: Cytotoxicity assay (MTT reduction), HELA cells; type: cell-based; settings: Hela cells
How it was run: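 HeLa cells were grown for 24 h, then exposed to peptides at 12.5, 25 and 50 μM in triplicate for 48 h at 37 °C. MTT reduction was read at 595 nm and growth % calculated relative to time-zero wells. LC50 interpolated by linear trend at −50% growth, GI50 at 50%.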

[3] = test system: Tryptase, from human lung; assay: Enzymatic assay, tryptase; settings: at 100 μM
[4] = target: T2, Elastase from human neutrophils (Homo sapiens, UniProt P08246); assay: Enzymatic assay, elastase
T2 sequence (P08246 30-267): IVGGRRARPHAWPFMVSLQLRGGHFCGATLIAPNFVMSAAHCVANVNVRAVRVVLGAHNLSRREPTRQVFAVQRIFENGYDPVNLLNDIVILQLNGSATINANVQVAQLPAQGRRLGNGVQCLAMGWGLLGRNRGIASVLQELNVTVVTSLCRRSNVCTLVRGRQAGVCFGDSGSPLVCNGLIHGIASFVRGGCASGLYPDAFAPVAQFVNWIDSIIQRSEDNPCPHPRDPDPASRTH

[5] = target: Trypsin, from human pancreas (Homo sapiens, UniProt P07477); assay: Enzymatic assay, trypsin; settings: at 100 μM
[6] = test system: human red blood cells (hRBC); assay: Hemolysis
Procedure: The peptides were tested for their hemolytic activity against human red blood cells (hRBC). Fresh hRBC were washed three times with phosphate buffered saline (PBS) by centrifugation for 10 min at 2000×g. Peptides at a concentration of 100 μM were incubated with 20% v/v hRBC for 1 hour at 37° C. The final erythrocyte concentration was approximately 0.9×10^9 cells per ml. A value of 0% and, respectively, 100% cell lysis was determined by incubation of the hRBC in the presence of PBS alone and, respectively, 0.1% Triton X-100 in H2O. […] The 100% lysis value (OD540H20) gave an OD540 of approximately 1.3-1.8. Percent hemolysis was calculated as follows: (OD540peptide/OD540H20)×100%.

[7] = target: Thrombin, from Human Plasma (Homo sapiens, UniProt P00734); assay: Enzymatic assay, thrombin
[8] = target: T3, CathepsinG, from human neutrophils (Homo sapiens, UniProt P08311); assay: Enzymatic assay, cathepsin G
T3 sequence (P08311 21-244): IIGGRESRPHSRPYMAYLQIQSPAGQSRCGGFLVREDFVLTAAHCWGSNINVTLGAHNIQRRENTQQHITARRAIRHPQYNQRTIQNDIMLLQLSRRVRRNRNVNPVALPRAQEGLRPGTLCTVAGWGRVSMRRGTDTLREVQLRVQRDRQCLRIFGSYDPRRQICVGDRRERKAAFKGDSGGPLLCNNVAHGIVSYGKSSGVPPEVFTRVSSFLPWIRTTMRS

[9] = target: Coagulation Factor Xa, from uman plasma (Homo sapiens, UniProt P00742); assay: Enzymatic assay, coagulation factor Xa
Chain of Coagulation Factor Xa, from uman plasma (P00742 235-488 limits assumed): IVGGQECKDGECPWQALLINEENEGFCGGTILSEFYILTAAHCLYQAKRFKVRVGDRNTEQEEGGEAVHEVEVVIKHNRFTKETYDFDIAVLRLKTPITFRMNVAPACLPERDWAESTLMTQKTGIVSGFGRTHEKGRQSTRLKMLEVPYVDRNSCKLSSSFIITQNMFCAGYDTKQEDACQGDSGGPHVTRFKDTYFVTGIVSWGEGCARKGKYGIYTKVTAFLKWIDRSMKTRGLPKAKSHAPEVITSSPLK
Chain of Coagulation Factor Xa, from uman plasma (P00742 41-179 limits assumed): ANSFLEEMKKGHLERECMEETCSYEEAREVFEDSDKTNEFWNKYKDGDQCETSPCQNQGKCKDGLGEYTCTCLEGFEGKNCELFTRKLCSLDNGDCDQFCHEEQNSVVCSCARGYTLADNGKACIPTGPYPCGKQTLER

Compound	Urokinase at 100 μM % [1]	Chymotrypsin at 100 μM % [2]	Chymase at 100 μM % (Chymase, from human skin)	Cytotoxicity LC50/GI50 Hela cells (HELA cells (Acc57))	Tryptase at 100 μM % [3]	IC50 ([4]; Elastase IC50)	Trypsin at 100 μM % [5]	Hemolysis at 100 μM % [6]	Thrombin at 100 μM % [7]	IC50 ([8]; Cathepsin G IC50)	FXa at 100 μM % [9]	IC50 ([4]; read-out: Elastase IC50)	IC50 ([8]; read-out: Cathepsin G IC50)
CC[C@H](C)[C@@H]1NC(=O)[C@@H]2CCCN2C(=O)[C@@H]2CCCN2C(=O)[C@H](CC(=O)O)NC(=O)[C@H](CO)NC(=O)[C@H](CCCCN)NC(=O)[C@H]([C@@H](C)O)NC(=O)[C@@H]2CSSC[C@H](NC1=O)C(=O)N[C@@H](CC(N)=O)C(=O)N1CCC[C@@H]1C(=O)N1CCC[C@H]1C(=O)N[C@@H](Cc1ccccc1)C(=O)N2 [Ex. 3] (HELM PEPTIDE1{F.C.T.K.S.D.P.P.I.C.N.[dP].P}$PEPTIDE1,PEPTIDE1,2:R3-10:R3|PEPTIDE1,PEPTIDE1,1:R1-13:R2$$$V2.0)	4%	0%	1%	100 µM	68%	> 100 µM	92%	0%	0%	0.051 µM	4%	–	–
C[C@@H](O)[C@@H]1NC(=O)[C@@H]2CSSC[C@H](NC(=O)[C@H](CC3CCCCC3)NC(=O)[C@@H]3CCCN3C(=O)[C@@H]3CCCN3C(=O)[C@H](CC(=O)O)NC(=O)[C@H](CO)NC(=O)[C@H](CCCCN)NC1=O)C(=O)N[C@@H](CO)C(=O)N1CCC[C@@H]1C(=O)N1CCC[C@H]1C(=O)N[C@@H](Cc1ccccc1)C(=O)N2 [Ex. 16] (HELM PEPTIDE1{F.C.T.K.S.D.P.P.[Cha].C.S.[dP].P}$PEPTIDE1,PEPTIDE1,2:R3-10:R3|PEPTIDE1,PEPTIDE1,1:R1-13:R2$$$V2.0)	3.2%	17.9%	12.9%	94 µM	–	> 100 µM	90.0%	0.1%	–	0.066 µM	–	–	–
CC[C@H](C)[C@@H]1NC(=O)[C@@H]2CCCN2C(=O)[C@H]2CCCN2C(=O)[C@H](CCCNC(=N)N)NC(=O)[C@@H]2CSSC[C@H](NC1=O)C(=O)N[C@@H]([C@@H](C)O)C(=O)N[C@@H](CCCCN)C(=O)N[C@@H](CO)C(=O)N[C@@H](CC(=O)O)C(=O)N1CCC[C@H]1C(=O)N1CCC[C@H]1C(=O)N[C@@H](CC1CCCCC1)C(=O)N2 [Ex. 20] (HELM PEPTIDE1{I.C.T.K.S.D.P.P.[Cha].C.R.[dP].P}$PEPTIDE1,PEPTIDE1,2:R3-10:R3|PEPTIDE1,PEPTIDE1,1:R1-13:R2$$$V2.0)	6.7%	0%	44.1%	100 µM	–	> 100 µM	97.0%	0%	28%	0.048 µM	25%	–	–
CC[C@H](C)[C@@H]1NC(=O)[C@@H]2CCCN2C(=O)[C@@H]2CCCN2C(=O)[C@H](CC(=O)O)NC(=O)[C@H](CO)NC(=O)[C@H](CCCCN)NC(=O)[C@H]([C@@H](C)O)NC(=O)[C@@H]2CSSC[C@H](NC1=O)C(=O)N[C@@H](CC(N)=O)C(=O)N1CCC[C@@H]1C(=O)N1CCC[C@H]1C(=O)N[C@@H](C1CCCCC1)C(=O)N2 [Ex. 37] (HELM PEPTIDE1{[O=C([C@@H](N[*:1])C1CCCCC1)[*:2]].C.T.K.S.D.P.P.I.C.N.[dP].P}$PEPTIDE1,PEPTIDE1,2:R3-10:R3|PEPTIDE1,PEPTIDE1,1:R1-13:R2$$$V2.0)	5%	–	–	92 µM	56%	–	–	0.1%	–	0.035 µM	–	–	–
CCCC[C@@H]1NC(=O)[C@@H]2CCCN2C(=O)[C@H]2CCCN2C(=O)[C@H]([C@@H](C)O)NC(=O)[C@@H]2CSSC[C@H](NC1=O)C(=O)N[C@@H]([C@@H](C)O)C(=O)N[C@@H](CCCCN)C(=O)N[C@@H](CO)C(=O)N[C@@H](CC(=O)O)C(=O)N1CCC[C@H]1C(=O)N1CCC[C@H]1C(=O)N[C@@H]([C@@H](C)CC)C(=O)N2 [Ex. 42] (HELM PEPTIDE1{[Nle].C.T.K.S.D.P.P.I.C.T.[dP].P}$PEPTIDE1,PEPTIDE1,2:R3-10:R3|PEPTIDE1,PEPTIDE1,1:R1-13:R2$$$V2.0)	7%	–	–	87 µM	0%	–	–	0%	–	0.046 µM	–	–	–
CC[C@H](C)[C@@H]1NC(=O)[C@@H]2CCCN2C(=O)[C@H]2CCCN2C(=O)[C@H](CCCNC(=N)N)NC(=O)[C@@H]2CSSC[C@H](NC1=O)C(=O)N[C@@H]([C@@H](C)O)C(=O)N[C@@H](CCCCN)C(=O)N[C@@H](CO)C(=O)N[C@@H](CC(=O)O)C(=O)N1CCC[C@H]1C(=O)N1CCC[C@H]1C(=O)N[C@@H](CC1CCCCC1)C(=O)N2 [Ex. 58] (HELM PEPTIDE1{I.C.T.K.S.D.P.P.[Cha].C.R.[dP].P}$PEPTIDE1,PEPTIDE1,2:R3-10:R3|PEPTIDE1,PEPTIDE1,1:R1-13:R2$$$V2.0)	6.7%	0%	44.1%	100 µM	–	–	97%	0%	28%	0.0475 µM	25%	> 100 µM	–
CCCC[C@@H]1NC(=O)[C@H]([C@@H](C)O)NC(=O)[C@@H]2CSSC[C@H](NC(=O)[C@H]([C@@H](C)CC)NC(=O)[C@@H]3CCCN3C(=O)[C@@H]3CCCN3C(=O)[C@H](CC(=O)O)NC(=O)[C@H](CO)NC1=O)C(=O)N[C@@H](CCCNC(=N)N)C(=O)N1CCC[C@@H]1C(=O)N1CCC[C@H]1C(=O)N[C@@H]([C@@H](C)CC)C(=O)N2 [Ex. 59] (HELM PEPTIDE1{I.C.T.[Nle].S.D.P.P.I.C.R.[dP].P}$PEPTIDE1,PEPTIDE1,2:R3-10:R3|PEPTIDE1,PEPTIDE1,1:R1-13:R2$$$V2.0)	5.7%	0%	98.8%	8 µM	3.8%	–	84%	0%	–	–	–	> 100 µM	0.055 µM
C[C@@H](O)[C@@H]1NC(=O)[C@@H]2CSSC[C@H](NC(=O)[C@H](Cc3ccc(O)cc3)NC(=O)[C@@H]3CCCN3C(=O)[C@@H]3CCCN3C(=O)[C@H](CC(=O)O)NC(=O)[C@H](CO)NC(=O)[C@H](CCCCN)NC1=O)C(=O)N[C@@H](Cc1ccc(O)cc1)C(=O)N1CCC[C@@H]1C(=O)N1CCC[C@H]1C(=O)N[C@@H](C1CCCCC1)C(=O)N2 [Ex. 65] (HELM PEPTIDE1{[O=C([C@@H](N[*:1])C1CCCCC1)[*:2]].C.T.K.S.D.P.P.Y.C.Y.[dP].P}$PEPTIDE1,PEPTIDE1,2:R3-10:R3|PEPTIDE1,PEPTIDE1,1:R1-13:R2$$$V2.0)	1%	–	–	84 µM	57%	–	–	0%	–	0.047 µM	–	–	–
